Experimental data reported in patent US20100279942A1, “METHODS FOR TREATING MOTOR NEURON DISEASE” (priority 2004, published 2010).
“And” between values parts separate entries of the source, which are not always exact repeats. Equal values may be shown once. “Also recorded” adds a separate entry of the source. Ends that are not written are not given here.

What was measured:
[1] = tested on: neuronal cell death caused by amyloid β; settings: cited from earlier work
[2] = tested on: G93A-SOD1 Tg mice; assay: Motor performance (rotarod), disease onset and survival in G93A-SOD1 Tg mice; format: in vivo, mouse
Description: Transgenic (Tg) mice (hereinafter, referred to as “G93A-SOD1 Tg mice”) expressing human FALS-associated SOD1 mutant gene with a mutation (G93A) from Gly to Ala at 93 position are the best-established mouse model of ALS (Gurney M E, et al., 1994, Science 264: 1772-1775; and Gurney M E, et al., 1997, J Neurol Sci 152 Suppl 1: S67-73). The G93A-SOD1 Tg mice manifest symptoms quite similar to human ALS after normal birth and rapidly result in death in all cases. The G93A-SOD1 Tg mice, which have the onset of the regression of motor neurons similar clinically and pathologically to that in human ALS, have been known so far to be the most excellent model of ALS throughout the world and employed for identifying effective candidate agents for ALS patients.
The model mice were used to confirm the in vivo effect of ADNF on neurotoxicity induced by G93A-SOD1.
The G93A-SOD 1 Tg mice were purchased from Jackson Laboratories (Bar Harbor, Me.). The G93A-SOD1 Tg mice were kept as hemizygote mice by the mating thereof with C57BL/6J mice (CLEA Japan, Inc). The mice were raised in a SPF room (specific pathogen-free animal facility; 23±1° C., 55±5% humidity) in the 12-hour light/[…] (7:00 AM-7:00 PM). The mice were freely fed with gamma ray-irradiated Picolab Rodent Diet 20 (PMI Feeds Inc. St. Louis, Mo.) and sodium hyposulfite (5 ppm)-containing aseptic deionized distilled water.
The G93A-SOD1 Tg mice at 10 weeks of age were put under anesthesia by the intraperitoneal injection of 10% sodium pentobarbital (60 mg/kg). A hole was made on the cranial bone with a drill on the operating table of a stereotactic instrument to aseptically transplant the C315GS-4 cannula system for mouse (Plastics One Inc., Roanoke, Va.) to the mouse left cerebral ventricle. The cannula was fixed with a surgical adhesive and dental cement. The mice at 80 days of age were divided at random to a saline (control)-administered group (n=8) and an ADNF-administered group (n=11), and 3 μl of saline and 3 μl of 30 nmol ADNF were intracerebroventricularly (icv) injected each day to the former and the latter groups, respectively, until the end of the experiment. The injection was performed with the cannula in C3151S-4 connected to Hamilton syringe through a cannula tube (C232, PE50/Thin wall, Plastic One).
The motor function (motor performance) was evaluated weekly with a rotarod (CLEA Japan Inc). After the cannulation, the mice were acclimated to the rotarod for 2 days. The mice were placed onto a rotating rod moving at 5 rpm, and the time for which each mouse could remain on the rod was automatically detected. The test was conducted according to the protocol wherein the test was completed as a score of 7 minutes if the mouse remained on the rod for 7 minutes (Li M, et al., 2000, Science 288: 335-339; and Kaspar B K, et al., 2003, Science 301: 839-842). Disease onset was defined as the first day when the mouse could not remain on the rotarod for 7 minutes.
Death was defined when the mouse was unable to right itself within 30 seconds after being placed on its back (Li M, et al., supra).

SALLRSIPA [ADNF, short peptide consisting of nine amino acid residues]
neuroprotective action at high concentration ([1]; ADNF at or above 10 nM, Brenneman et al.): lose its neuroprotective action | inhibitory activity against cell death caused by amyloid β toxicity- or APP mutant gene-induced disorders ([1]; ADNF at or above nM levels, Hashimoto et al. 2001): reduced inhibitory activity | disease onset versus saline-administered group ([2]; 30 nmol ADNF icv each day): prone to be delayed; also recorded: no significant difference | survival rate versus ALS control mice ([2]; 30 nmol ADNF icv each day): no difference | Survival days ([2]; 30 nmol ADNF icv each day, n = 11): 155.3 ± 3.7 days and 155.3 ± 2.2 days | Disease onset days ([2]; 30 nmol ADNF icv each day, n = 11, onset = first day unable to remain on rotarod for 7 minutes): 127.3 ± 2.6 days | motor performance (rotarod) versus control mice ([2]; Week 16, 30 nmol ADNF icv each day from 80 days of age): significantly better than that of the control mice | motor performance (rotarod) versus control mice ([2]; Week 18 to Week 20, 30 nmol ADNF icv each day): this difference between the control mice and the ADNF-treated mice disappeared
